Assay results reported in ChEMBL document CHEMBL4229379, “Synthesis and structure-activity relationship of novel bisindole amidines active against MDR Gram-positive and Gram-negative bacteria” (Eur J Med Chem, 2018).

Key:
Format in all cases: functional
[1] = tested on: Staphylococcus epidermidis; test: Antibacterial activity against methicillin-sensitive Staphylococcus epidermidis ATCC 12228 after 18 hrs by CLSI broth microdilution method; settings: ATCC 12228, 18 h
[2] = tested on: Staphylococcus epidermidis; test: Antibacterial activity against methicillin-resistant Staphylococcus epidermidis 12-8 after 18 hrs by CLSI broth microdilution method; settings: 12-8, 18 h
Staphylococcus aureus [3] = test: Antibacterial activity against methicillin-sensitive Staphylococcus aureus ATCC 29213 after 18 hrs by CLSI broth microdilution method; settings: ATCC 29213, 18 h
Staphylococcus aureus [4] = test: Antibacterial activity against methicillin-resistant Staphylococcus aureus 12-33 after 18 hrs by CLSI broth microdilution method; settings: 12-33, 18 h
Enterococcus faecalis [5] = test: Antibacterial activity against vancomycin-sensitive Enterococcus faecalis ATCC 29212 after 18 hrs by CLSI broth microdilution method; settings: ATCC 29212, 18 h
Enterococcus faecalis [6] = test: Antibacterial activity against vancomycin-resistant Enterococcus faecalis 09-9 after 18 hrs by CLSI broth microdilution method; settings: 09-9, 18 h
Enterococcus faecium [7] = test: Antibacterial activity against vancomycin-resistant Enterococcus faecium ATCC 700221 after 18 hrs by CLSI broth microdilution method; settings: ATCC 700221, 18 h
Enterococcus faecium [8] = test: Antibacterial activity against vancomycin-sensitive Enterococcus faecium 12-3 after 18 hrs by CLSI broth microdilution method; settings: 12-3, 18 h
Escherichia coli [9] = test: Antibacterial activity against extended-spectrum beta-lactamase deficient Escherichia coli ATCC 25922 after 18 hrs by CLSI broth microdilution method; settings: ATCC 25922, 18 h
Escherichia coli [10] = test: Antibacterial activity against extended-spectrum beta-lactamase harboring Escherichia coli 12-15 after 18 hrs by CLSI broth microdilution method; settings: 12-15, 18 h
Klebsiella pneumoniae [11] = test: Antibacterial activity against new delhi metallo-beta-lactamase-1 harboring Klebsiella pneumoniae ATCC BAA-2146 after 18 hrs by CLSI broth microdilution method; settings: ATCC BAA-2146, 18 h
Klebsiella pneumoniae [12] = test: Antibacterial activity against extended-spectrum beta-lactamase harboring Klebsiella pneumoniae 12-8 after 18 hrs by CLSI broth microdilution method; settings: 12-8, 18 h
Pseudomonas aeruginosa [13] = test: Antibacterial activity against Pseudomonas aeruginosa ATCC 27853 after 18 hrs by CLSI broth microdilution method; settings: ATCC 27853, 18 h
[14] = tested on: Acinetobacter calcoaceticus; test: Antibacterial activity against Acinetobacter calcoaceticus ATCC 19606 after 18 hrs by CLSI broth microdilution method; settings: ATCC 19606, 18 h
Enterobacter cloacae [15] = test: Antibacterial activity against Enterobacter cloacae ATCC 43560 after 18 hrs by CLSI broth microdilution method; settings: ATCC 43560, 18 h
Proteus mirabilis = test: Antibacterial activity against Proteus mirabilis 12-6 after 18 hrs by CLSI broth microdilution method; settings: 12-6, 18 h
Escherichia coli [16] = test: Antibacterial activity against extended-spectrum beta-lactamase harboring Escherichia coli 13-1 after 18 hrs by CLSI broth microdilution method; settings: 13-1, 18 h
Escherichia coli [17] = test: Antibacterial activity against extended-spectrum beta-lactamase harboring Escherichia coli CDC1001728 after 18 hrs by CLSI broth microdilution method; settings: CDC1001728, 18 h
Klebsiella pneumoniae [18] = test: Antibacterial activity against carbapenem-resistant Klebsiella pneumoniae 12-11 after 18 hrs by CLSI broth microdilution method; settings: 12-11, 18 h
Klebsiella pneumoniae [19] = test: Antibacterial activity against carbapenem-resistant Klebsiella pneumoniae 12-12 after 18 hrs by CLSI broth microdilution method; settings: 12-12, 18 h
[20] = tested on: Acinetobacter calcoaceticus; test: Antibacterial activity against new delhi metallo-beta-lactamase-1 harboring Acinetobacter calcoaceticus 13-1 after 18 hrs by CLSI broth microdilution method; settings: 13-1, 18 h
[21] = tested on: Acinetobacter calcoaceticus; test: Antibacterial activity against carbapenem-resistant Acinetobacter calcoaceticus 12-6 after 18 hrs by CLSI broth microdilution method; settings: 12-6, 18 h
Klebsiella aerogenes [22] = test: Antibacterial activity against carbapenem-resistant Enterobacter aerogenes 11-4 after 18 hrs by CLSI broth microdilution method; settings: 11-4, 18 h
Enterobacter cloacae [23] = test: Antibacterial activity against new delhi metallo-beta-lactamase-1 harboring Enterobacter cloacae CDC1000654 after 18 hrs by CLSI broth microdilution method; settings: CDC1000654, 18 h
Enterobacter cloacae [24] = test: Antibacterial activity against new delhi metallo-beta-lactamase-1 harboring Enterobacter cloacae 13-1 after 18 hrs by CLSI broth microdilution method; settings: 13-1, 18 h
[25] = tested on: Staphylococcus epidermidis; test: Antibacterial activity against methicillin-sensitive Staphylococcus epidermidis 12-6 after 18 hrs by CLSI broth microdilution method; settings: 12-6, 18 h
Staphylococcus aureus [26] = test: Antibacterial activity against methicillin-resistant Staphylococcus aureus ATCC 33591 after 18 hrs by CLSI broth microdilution method; settings: ATCC 33591, 18 h
Staphylococcus aureus [27] = test: Antibacterial activity against methicillin-sensitive Staphylococcus aureus 15 after 18 hrs by CLSI broth microdilution method; settings: Staphylococcus aureus, 15, 18 h
Staphylococcus aureus [28] = test: Antibacterial activity against methicillin-sensitive Staphylococcus aureus 12-28 after 18 hrs by CLSI broth microdilution method; settings: 12-28, 18 h
Enterococcus faecalis [29] = test: Antibacterial activity against vancomycin-resistant Enterococcus faecalis ATCC 51299 after 18 hrs by CLSI broth microdilution method; settings: ATCC 51299, 18 h
Enterococcus faecalis [30] = test: Antibacterial activity against vancomycin-sensitive Enterococcus faecalis 12-5 after 18 hrs by CLSI broth microdilution method; settings: 12-5, 18 h
Enterococcus faecium [31] = test: Antibacterial activity against vancomycin-resistant Enterococcus faecium 12-1 after 18 hrs by CLSI broth microdilution method; settings: 12-1, 18 h
Escherichia coli [32] = test: Antibacterial activity against extended-spectrum beta-lactamase deficient Escherichia coli 1515 after 18 hrs by CLSI broth microdilution method; settings: Escherichia coli, 1515, 18 h
Klebsiella pneumoniae [33] = test: Antibacterial activity against extended-spectrum beta-lactamase deficient Klebsiella pneumoniae 7 after 18 hrs by CLSI broth microdilution method; settings: Klebsiella pneumoniae, 7, 18 h
Klebsiella pneumoniae [34] = test: Antibacterial activity against extended-spectrum beta-lactamase deficient Klebsiella pneumoniae 12-4 after 18 hrs by CLSI broth microdilution method; settings: 12-4, 18 h
Pseudomonas aeruginosa [35] = test: Antibacterial activity against Pseudomonas aeruginosa 12-16 after 18 hrs by CLSI broth microdilution method; settings: 12-16, 18 h
Klebsiella aerogenes [36] = test: Antibacterial activity against Enterobacter aerogenes ATCC 13048 after 18 hrs by CLSI broth microdilution method; settings: ATCC 13048, 18 h
Serratia marcescens = test: Antibacterial activity against Serratia marcescens ATCC 21074 after 18 hrs by CLSI broth microdilution method; settings: ATCC 21074, 18 h
Providencia rettgeri = test: Antibacterial activity against Providencia rettgeri ATCC 31052 after 18 hrs by CLSI broth microdilution method; settings: ATCC 31052, 18 h
Proteus vulgaris = test: Antibacterial activity against Proteus vulgaris ATCC 29905 after 18 hrs by CLSI broth microdilution method; settings: ATCC 29905, 18 h
[37] = tested on: Stenotrophomonas maltophilia; test: Antibacterial activity against Stenotrophomonas maltophilia ATCC 13636 after 18 hrs by CLSI broth microdilution method; settings: ATCC 13636, 18 h
Citrobacter freundii = test: Antibacterial activity against Citrobacter freundii ATCC 43864 after 18 hrs by CLSI broth microdilution method; settings: ATCC 43864, 18 h

C[C@H]1COc2c(N3CCN(C)CC3)c(F)cc3c(=O)c(C(=O)O)cn1c23.C[C@H]1COc2c(N3CCN(C)CC3)c(F)cc3c(=O)c(C(=O)O)cn1c23.O [LEVOFLOXACIN] was tested, and the MIC [1] was 0.125 µg/mL, the MIC [2] was 4 µg/mL and the MIC (Staphylococcus aureus [3]) was 0.125 µg/mL. For the same compound, the MIC (Staphylococcus aureus [4]) was 32 µg/mL, the MIC (Enterococcus faecalis [5]) was 0.5 µg/mL and the MIC (Enterococcus faecalis [6]) was > 128 µg/mL. The MIC (Enterococcus faecium [7]) was 64 µg/mL, the MIC (Enterococcus faecium [8]) was 32 µg/mL and the MIC (Escherichia coli [9]) was ≤ 0.03 µg/mL. For the same compound, the MIC (Escherichia coli [10]) was 16 µg/mL, the MIC (Klebsiella pneumoniae [11]) was > 128 µg/mL and the MIC (Klebsiella pneumoniae [12]) was 8 µg/mL. The MIC (Pseudomonas aeruginosa [13]) was 0.5 µg/mL, the MIC [14] was 0.5 µg/mL and the MIC (Enterobacter cloacae [15]) was ≤ 0.03 µg/mL. For the same compound, the MIC (Proteus mirabilis) was 4 µg/mL, the MIC (Escherichia coli [16]) was 64 µg/mL and the MIC (Escherichia coli [17]) was 16 µg/mL. For the same compound, the MIC (Klebsiella pneumoniae [18]) was 16 µg/mL, the MIC (Klebsiella pneumoniae [19]) was 8 µg/mL and the MIC [20] was 2 µg/mL. For the same compound, the MIC [21] was 8 µg/mL, the MIC (Klebsiella aerogenes [22]) was 16 µg/mL and the MIC (Enterobacter cloacae [23]) was 32 µg/mL. For the same compound, the MIC (Enterobacter cloacae [24]) was 128 µg/mL, the MIC [25] was 0.5 µg/mL and the MIC (Staphylococcus aureus [26]) was 0.125 µg/mL. The MIC (Staphylococcus aureus [27]) was 0.125 µg/mL, the MIC (Staphylococcus aureus [28]) was 0.125 µg/mL and the MIC (Enterococcus faecalis [29]) was 0.5 µg/mL. The MIC (Enterococcus faecalis [30]) was 1 µg/mL, the MIC (Enterococcus faecium [31]) was 32 µg/mL and the MIC (Escherichia coli [32]) was ≤ 0.03 µg/mL. The MIC (Klebsiella pneumoniae [33]) was ≤ 0.03 µg/mL, the MIC (Klebsiella pneumoniae [34]) was ≤ 0.03 µg/mL and the MIC (Pseudomonas aeruginosa [35]) was 8 µg/mL. For the same compound, the MIC (Klebsiella aerogenes [36]) was ≤ 0.03 µg/mL, the MIC (Serratia marcescens) was 0.06 µg/mL and the MIC (Providencia rettgeri) was ≤ 0.03 µg/mL. For the same compound, the MIC (Proteus vulgaris) was 0.125 µg/mL, the MIC [37] was 0.25 µg/mL and the MIC (Citrobacter freundii) was ≤ 0.03 µg/mL.
